Measured values published in patent US20190112208A1, “COMPOSITIONS EXHIBITING SYNERGY IN BIOFILM CONTROL” (SOLENIS TECHNOLOGIES, L.P., priority 2017, published 2019).
Where two headings read alike, the source gives them in different places.

Tested on: Pseudomonas putida biofilms
Assay type: cell-based
Procedure: In this work the efficacy of the agents alone and in combination were determined by measuring the number of viable cells in model biofilms remaining after treatment. The Minimum Biofilm Eradication value (MBEC) is defined as a 95% reduction in the number of viable cells compared to the untreated control. The relatively non-toxic dispersants are unable to reach that level of killing with physically possible concentrations, thus for those agents the MBEC is considered the highest value tested. Since this value is used as the divisor in the synergy index equation this highest tested value is actually an underestimate of the MBEC and thus synergy index values are also […].
Dose response studies were performed to determine the Minimum Biofilm Eradication Concentration (MBEC) for monochloramine and SDBS alone. The MBEC is defined as the concentration of agent that reduces the viable biofilm population by 95% of the untreated control value as measured by viable plate counts. Experiments were then performed to determine the result of combining the two agents, oxidizing biocide monochloramine and dispersant SDBS, on biofilm populations. The experiments examined three concentrations of monochloramine with four concentrations of SDBS. The SDBA used in the examples was Bio-Soft™ D-4 (Stepan Company, Northfield, Ill.).
M9YG media is a simple minimal salt medium supplemented with 500 mg/L glucose and 0.01% yeast extract. The salts composition is intended to mimic a typical cooling tower water composition. The composition of the media is made using the following procedure: 5XM9 salt composition is mixed using 64 gm Na2HPO4.7H2O, 15 grams KH2PO4, 2.5 gm NaCl and 5 grams NH4Cl in one liter of water. This is divided into 200 ml aliquots and sterilized (by autoclave). To 750 ml of sterile deionized water is added the sterile supplement solutions while stirring. A white precipitate will appear on addition of the CaCl2 but will dissolve with stirring. Supplement solution is 200 ml of 5XM9 composition, 2 ml of 1M MgSO4, 0.1 ml of 1M CaCl2, 20 ml of 20% glucose, 1 ml of 10% yeast extract, and enough water to make 1000 ml of solution. […]
Biofilms were grown on stainless steel 316 coupons in a CDC Biofilm reactor using M9YG minimal salts growth media for a period of twenty-four hours. […] Viable cells released into the fluid were then determined by a plating method.
Synergy indices were calculated as described in Kull et al. as in example 1.
Dose response studies were performed to determine the Minimum Biofilm Eradication Concentration (MBEC) for monochloramine/dichloramine blend (MCA/DCA) and SDBS alone. The MBEC is defined as the concentration of agent that reduces the viable biofilm population by 95% of the untreated control value as measured by viable plate counts. […]

Molecule | % Biofilm reduction (Example 1, 20 mg/L MCA alone) [%] | % Biofilm reduction (Example 1, 20 mg/L MCA alone, listed as monochloramine) | % Biofilm reduction (Example 1, 312 mg/L SDBS alone) [%] | % Biofilm reduction (Example 2, 312 mg/L SDBS alone) [%]
NCl [MCA, monochloramine] | 93.58 | greater than 90% |  | 
Sodium dodecylbenzenesulfonates [SDBS] |  |  | 48.62 | 84.58
